Source: ChEMBL document CHEMBL1201862, “PubChem BioAssay data set” (2004)
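The compound was tested at five concentrations on cells cultured in 96-well plates, with a 48-hour exposure period. Here, GI50 denotes the concentration required for 50% inhibition of growth.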 Active and inactive are the calls of the source. Rule as the data show it: active = GI50 up to about 1.1 µM and inactive = higher.

Assays:
Assay in all cases: NCI tumour cell line growth inhibition, 48 h
DLD-1 = test system: DLD-1
KM-20L2 = test system: KM-20L2
M19-MEL = test system: M19-MEL
HOP-18 = test system: HOP-18
RXF 631 = test system: RXF 631
LXFL 529 = test system: LXFL 529
DMS-273 = test system: DMS-273
XF498 = test system: XF498
DMS-114 = test system: DMS-114

Compound | GI50 (DLD-1) | GI50 (KM-20L2) | GI50 (M19-MEL) | GI50 (HOP-18) | GI50 (RXF 631) | GI50 (LXFL 529) | GI50 (DMS-273) | GI50 (XF498) | GI50 (DMS-114)
CC(C)c1cccc(C(C)C)c1NC1=CC(=O)C(=O)c2ccccc21 | > 100 µM (inactive) | > 100 µM (inactive) | 22.3 µM (inactive) | > 100 µM (inactive) | > 100 µM (inactive) | > 100 µM (inactive) | > 100 µM (inactive) | – | –
COc1cc2c(c(OC)c1OC)-c1ccc(SC)c(=O)cc1[C@@H](NC(=O)C(F)(F)F)CC2 | < 0.01 µM (active) | < 0.01 µM (active) | – | 26.5 µM (inactive) | – | < 0.01 µM (active) | < 0.01 µM (active) | 0.0585 µM (active) | –
COC(=O)C(=O)C(C(=O)C(=O)Nc1cccc(C(C)=O)c1)c1nc2ccc([N+](=O)[O-])cc2nc1O (centres undefined) | > 100 µM (inactive) | > 100 µM (inactive) | – | > 100 µM (inactive) | > 100 µM (inactive) | > 100 µM (inactive) | > 100 µM (inactive) | > 100 µM (inactive) | > 100 µM (inactive)
FC(F)(F)c1nc(Br)[nH]c1C(F)(F)F | > 100 µM (inactive) | 64.6 µM (inactive) | > 100 µM (inactive) | 28.8 µM (inactive) | 61.4 µM (inactive) | 92.3 µM (inactive) | > 100 µM (inactive) | > 100 µM (inactive) | 40.2 µM (inactive)
O=C(O)/C(=C/C=C/c1ccccc1)c1csc(-c2nc(/C(=C\C=C\c3ccccc3)C(=O)O)cs2)n1 | 12.6 µM (inactive) | 35.8 µM (inactive) | 31.1 µM (inactive) | – | – | 24.7 µM (inactive) | – | – | 23.7 µM (inactive)
CC(=O)O[C@H]1CC[C@@]2(C)C(=CC[C@@H]3C2CC[C@]2(C)Nc4oncc4CC32)C1 (some centres undefined) | 46 µM (inactive) | 90.6 µM (inactive) | 28.5 µM (inactive) | – | 33.5 µM (inactive) | 13 µM (inactive) | 26.9 µM (inactive) | 31.5 µM (inactive) | –
O=C(Nc1ccc(C(F)(F)F)cc1[N+](=O)[O-])C(=O)C1NC(=S)NC1=O (centres undefined) | > 100 µM (inactive) | > 100 µM (inactive) | > 100 µM (inactive) | > 100 µM (inactive) | 82.2 µM (inactive) | > 100 µM (inactive) | > 100 µM (inactive) | – | > 100 µM (inactive)
COc1cccc(C2=NC(C(C)C)CO2)c1OC (centres undefined) | > 100 µM (inactive) | > 100 µM (inactive) | > 100 µM (inactive) | – | – | > 100 µM (inactive) | > 100 µM (inactive) | > 100 µM (inactive) | > 100 µM (inactive)
Cn1cc2ccccc2c1-c1nc(F)nc(Oc2ccc3c(c2)CC[C@@H]2C3CC[C@@]3(C)C2C[C@H](O)[C@@H]3O)n1 (some centres undefined) | 10.3 µM (inactive) | 15.8 µM (inactive) | 16.9 µM (inactive) | 22.3 µM (inactive) | – | 13.8 µM (inactive) | 10.3 µM (inactive) | 22.4 µM (inactive) | 12.3 µM (inactive)
C[N+](C)(C)CC(=O)N/N=C(\C(=O)NC1=C(Cl)C(=O)c2ccccc2C1=O)C(C#N)c1csc(-c2ccc([N+](=O)[O-])cc2)n1 (centres undefined) | > 100 µM (inactive) | > 100 µM (inactive) | > 100 µM (inactive) | > 100 µM (inactive) | > 100 µM (inactive) | > 100 µM (inactive) | > 100 µM (inactive) | > 100 µM (inactive) | > 100 µM (inactive)
C[C@H]1CCC/C=C/[C@@H]2C[C@H](O)C[C@H]2[C@H](O)/C=C/C(=O)O1 [BREFELDIN A] | 0.0134 µM (active) | 0.0041 µM (active) | – | 2.81 µM (inactive) | 0.101 µM (active) | 0.00877 µM (active) | 0.0266 µM (active) | 0.00649 µM (active) | –
CN1C(=O)CSC1=S [3-METHYL-RHODANINE] | > 100 µM (inactive) | > 100 µM (inactive) | > 100 µM (inactive) | > 100 µM (inactive) | – | > 100 µM (inactive) | > 100 µM (inactive) | – | > 100 µM (inactive)
O=C(NCc1ccc2ccc3cccnc3c2n1)c1ccc[n+](Cc2ccccc2)c1 | > 100 µM (inactive) | > 100 µM (inactive) | 60.8 µM (inactive) | > 100 µM (inactive) | > 100 µM (inactive) | 67.6 µM (inactive) | > 100 µM (inactive) | > 100 µM (inactive) | 36.8 µM (inactive)
CCCCCCCCCCCCCCCCOP(=O)([O-])OCC[N+](C)(C)C [MILTEFOSINE] | 18.9 µM (inactive) | > 10 µM (inactive) | 15.6 µM (inactive) | 39.4 µM (inactive) | – | – | 6.92 µM (inactive) | 17.9 µM (inactive) | 32.6 µM (inactive)
COc1ccccc1OCc1nnc(SCC(=O)O)n1-c1ccccc1 | > 100 µM (inactive) | > 100 µM (inactive) | – | – | – | > 100 µM (inactive) | > 100 µM (inactive) | > 100 µM (inactive) | > 100 µM (inactive)
CCOC(=O)CC(NCc1ccc(/N=C/c2nc3ccc(C(F)(F)F)cc3nc2-c2ccccc2)cc1)C(=O)OCC (centres undefined) | > 100 µM (inactive) | > 54.7 µM (inactive) | > 100 µM (inactive) | 24.7 µM (inactive) | – | > 100 µM (inactive) | > 64.1 µM (inactive) | 14.2 µM (inactive) | > 68.5 µM (inactive)
COC(=O)[C@H]1C2CC[C@@H]3C45C[C@@H](c6ccoc6)O[C@@H]4O[C@@H](O2)C31CCC5C (some centres undefined) | > 100 µM (inactive) | > 100 µM (inactive) | – | > 100 µM (inactive) | – | 57.7 µM (inactive) | > 100 µM (inactive) | > 100 µM (inactive) | –
C[C@]12CCc3nonc3C1CC[C@@H]1C2CC[C@@]2(C)C1CC[C@@H]2O (some centres undefined) | > 100 µM (inactive) | > 100 µM (inactive) | > 100 µM (inactive) | > 100 µM (inactive) | > 100 µM (inactive) | > 100 µM (inactive) | > 100 µM (inactive) | > 100 µM (inactive) | > 100 µM (inactive)
CC(=O)OC1C(=O)C(O)C(C)OC1O[C@@H]1C[C@@]2(C)[C@@H]3CC=C4[C@@H](C[C@H](O)C(=O)C4(C)C)[C@]3(C)C(=O)C[C@]2(C)[C@H]1[C@@](C)(O)C(=O)/C=C/C(C)(C)O (some centres undefined) | 1.3 µM (inactive) | 1.39 µM (inactive) | 2.44 µM (inactive) | 1.22 µM (inactive) | 2.39 µM (inactive) | 0.881 µM (active) | 0.658 µM (active) | 0.297 µM (active) | –
C/C(COc1ccccc1)=N\NC(N)=S | > 100 µM (inactive) | > 100 µM (inactive) | > 100 µM (inactive) | – | – | 44.5 µM (inactive) | > 100 µM (inactive) | 53.5 µM (inactive) | 62.7 µM (inactive)
CN(/N=C/c1ccnc2ccccc12)c1c([N+](=O)[O-])cc([N+](=O)[O-])cc1[N+](=O)[O-] | 37.4 µM (inactive) | > 100 µM (inactive) | > 100 µM (inactive) | > 100 µM (inactive) | – | 48.4 µM (inactive) | > 100 µM (inactive) | 70.1 µM (inactive) | 37.9 µM (inactive)
NC(=O)c1ccccc1NC(=O)C(=O)Cc1nc2ccccc2nc1O | > 100 µM (inactive) | > 100 µM (inactive) | > 100 µM (inactive) | – | > 100 µM (inactive) | > 100 µM (inactive) | > 100 µM (inactive) | – | 94.6 µM (inactive)
CN/N=C(/CC(=O)c1sc(NNC(C)=O)nc1C)C(=O)Nc1ccc(OC)cc1OC | > 100 µM (inactive) | > 100 µM (inactive) | > 100 µM (inactive) | – | – | > 100 µM (inactive) | > 100 µM (inactive) | > 100 µM (inactive) | > 100 µM (inactive)
CC(C)C(NCc1c2ccccc2[n+]([O-])c2ccccc12)C(=O)O (centres undefined) | 36.4 µM (inactive) | 43.8 µM (inactive) | – | 14.5 µM (inactive) | – | 35.1 µM (inactive) | 38.9 µM (inactive) | – | 29.6 µM (inactive)
C=CCCCCCCCC(O)C1C[C@H](O)C(CCCCC)O1 (some centres undefined) | 17.3 µM (inactive) | – | 19.1 µM (inactive) | 17.9 µM (inactive) | – | 15.5 µM (inactive) | 18.1 µM (inactive) | – | 17.3 µM (inactive)
Clc1ccc(CNc2nc3ccccc3nc2-c2cccs2)c(Cl)c1 | – | 49.3 µM (inactive) | 66.8 µM (inactive) | > 100 µM (inactive) | 67.3 µM (inactive) | > 100 µM (inactive) | 86.7 µM (inactive) | 26.7 µM (inactive) | –
CCCCCN(CCCCC)C(=O)[C@H](CCC(=O)OCc1ccccc1)NC(=O)c1cc2ccccc2[nH]1 | > 100 µM (inactive) | > 100 µM (inactive) | – | > 100 µM (inactive) | > 100 µM (inactive) | > 100 µM (inactive) | > 100 µM (inactive) | – | > 100 µM (inactive)
Cc1ccc(NC(=O)CCC(=O)C2CC(=O)CCC2=O)cc1C (centres undefined) | > 100 µM (inactive) | > 100 µM (inactive) | > 100 µM (inactive) | > 100 µM (inactive) | > 100 µM (inactive) | > 100 µM (inactive) | > 100 µM (inactive) | – | > 100 µM (inactive)
